From patent US20240246954A1, “COMPOSITIONS AND METHODS FOR INHIBITING KRAS” (TheRas, Inc., priority 2021, published 2024)

How the values were obtained:
[1] = target: T1, Avi-KRAS G12D/Q25A (1-169) GppNHp/3×FLAG-PI3KCA (157-299) (Homo sapiens, UniProt P01116, G12D/Q25A); assay: HTRF PI3KCA-KRAS G12D/Q25A-GppNHp disruption assay; assay type: biochemical; details: 1 h incubation
T1 construct: Avi-KRAS G12D/Q25A (1-169) GppNHp
Procedure: (§1) The HTRF assay employed the following protocol:
(§2) Compounds were dispensed in assay plate (384-well, Grenier Bione #784075) using Echo (model 555) with dose response settings: 200 nL final volume, titration from 100 μM as a 10-point dilution series. Protein mix was prepared in assay buffer, and dispensed on plates, 10 μL per well, then incubated for 1 h at room temperature, with 700 rpm shaking. Reagents mix was prepared and dispensed on plates, 10 μL per well, then incubated for 1 h at room temperature, with 700 rpm shaking.
(§3) Plates were analyzed on an Envision plate reader using the following setting: Excitation 320 nm, Bandwidth […]; Emission 615 nm, Bandwidth […], Gain 100%, Flashes 100, Lag 60 μs. Data was reported as percentage of activity, with DMSO as 100%. Data was plotted and analyzed using Prism 8.

[2] = target: T2, Avi-KRAS G12D (1-169) GppNHp/RAF1 RBD-3×FLAG (52-151) (Homo sapiens, UniProt P01116, G12D); assay: HTRF Raf1-KRAS G12D-GppNHp disruption assay; assay type: biochemical; details: 1 h incubation
T2 construct: Avi-KRAS G12D (1-169) GppNHp
Procedure: as §1, §2, §3

T1 sequence (P01116 1-169 isoform P01116-2 G12D/Q25A limits assumed): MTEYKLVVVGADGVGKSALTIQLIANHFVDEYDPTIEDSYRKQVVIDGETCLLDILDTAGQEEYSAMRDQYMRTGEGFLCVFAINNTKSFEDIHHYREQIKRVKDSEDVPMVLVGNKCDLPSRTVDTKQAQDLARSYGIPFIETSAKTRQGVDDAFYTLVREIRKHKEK
T2 sequence (P01116 1-169 isoform P01116-2 G12D limits assumed): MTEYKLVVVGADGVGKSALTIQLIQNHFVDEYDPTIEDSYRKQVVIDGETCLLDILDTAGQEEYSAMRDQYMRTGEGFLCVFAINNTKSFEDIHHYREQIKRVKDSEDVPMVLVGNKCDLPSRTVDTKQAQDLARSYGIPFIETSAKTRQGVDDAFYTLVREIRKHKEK

SMILES	IC50 [1]	IC50 [2]
CN1CCC[C@H]1COc1nc(N2C[C@H]3NCC[C@H]32)c2cc(Cl)c(-c3ccc(F)c4sc(N)nc34)c(F)c2n1 [Compound 95]	10 to 30 µM	10 to 30 µM
Nc1nc2c(-c3c(C(F)(F)F)cc4c(N5CCNCC5)ncnc4c3F)ccc(F)c2s1 [Compound 65, 7-fluoro-4-(8-fluoro-4-(piperazin-1-yl)-6-(trifluoromethyl)quinazolin-7-yl)benzo[d]thiazol-2-amine]	10 to 30 µM	10 to 30 µM
CCN(c1nc(OC[C@@H]2CCCN2C)nc2c(F)c(-c3ccc(F)c4sc(N)nc34)c(C(F)(F)F)cc12)C1CNC1 [Compound 170]	10 to 30 µM	10 to 30 µM
N#CCc1cc2c(N3CCN(C(=O)CN)CC3)ncnc2c(F)c1-c1ccc(F)c2sc(N)nc12 [Compound 131]	10 to 30 µM	10 to 30 µM
Nc1nc2c(-c3c(Cl)cc4c(N5CC6CNC(C6)C5)ncnc4c3F)ccc(F)c2s1 (stereo not drawn) [Compound 243]	10 to 30 µM	10 to 30 µM
NC(=O)N1CCN(c2nc(OCC34CCCN3CCC4)nc3c(F)c(-c4ccc(F)c5sc(N)nc45)c(Cl)cc23)CC1 [Compound 162]	10 to 30 µM	10 to 30 µM
Fc1c(-c2ccc(F)c3scnc23)c(C(F)(F)F)cc2c(N3CC4CCC(C3)N4)nc(OCC34CCCN3CCC4)nc12 [Compound 375]	10 to 30 µM	10 to 30 µM
Nc1nc2c(-c3c(Cl)cc4c(N5CCCNCC5)ncnc4c3F)ccc(F)c2s1 [Compound 242]	10 to 30 µM	10 to 30 µM
CN1CCC[C@H]1COc1nc(NCCN)c2cc(Cl)c(-c3cccc4nc(N)sc34)c(F)c2n1 [Compound 100]	10 to 30 µM	10 to 30 µM
Nc1nc2c(-c3c(C(F)(F)F)cc4c(N5CCNCC5)nc(OC[C@@H]5CCCN5CCF)nc4c3F)ccc(F)c2s1 [Compound 168]		10 to 30 µM
Nc1nc2c(-c3c(C(F)(F)F)cc4c(NC5CN(C(=O)C6CN6)C5)nc(OCC56CCCN5CCC6)nc4c3F)ccc(F)c2s1 (stereo not drawn) [Compound 235]	10 to 30 µM	1 to 10 µM
CN1CCC[C@H]1COc1nc(N2CCNCC2)c2cc(C3(C#N)CCC3)c(-c3ccc(F)c4sc(N)nc34)c(F)c2n1 [Compound 203, 1-[7-(2-amino-7-fluoro-1,3-benzothiazol-4-yl)-8-fluoro-2-[[(2S)-1-methylpyrrolidin-2-yl]methoxy]-4-piperazin-1-yl-quinazolin-6-yl]cyclobutanecarbonitrile]	10 to 30 µM	10 to 30 µM
NCC(=O)N1CCN(c2nc(OC[C@@H]3CCCN3CC(F)F)nc3c(F)c(-c4ccc(F)c5sc(N)nc45)c(C(F)(F)F)cc23)CC1 [Compound 193]		10 to 30 µM
Nc1nc2c(-c3c(C(F)(F)F)cc4c(N5CCNCC5)nc(OC[C@@H]5CCCN5CC(F)F)nc4c3F)ccc(F)c2s1 [Compound 172]		10 to 30 µM
CN1CCC[C@H]1COc1nc(NC2CN(C(=O)CN)C2)c2cc(C(F)(F)F)c(-c3ccc(F)c4sc(N)nc34)c(F)c2n1 [Compound 130]		1 to 10 µM
CN(c1nc(OCC23CCCN2CCC3)nc2c(F)c(-c3ccc(F)c4sc(N)nc34)c(C(F)(F)F)cc12)C1CN(C(=O)CN)C1 [Compound 171]		1 to 10 µM
Nc1nc2c(-c3c(-c4ccoc4)cc4c(N5CC6CC(C5)N6)nc(OCC56CCCN5CCC6)nc4c3F)ccc(F)c2s1 [Compound 194]		1 to 10 µM
Nc1nc2c(-c3c(C(F)(F)F)cc4c(N5CCNCC5)nc(OC[C@]56CCCN5C[C@H](F)C6)nc4c3F)ccc(F)c2s1 [Compound 169]		10 to 30 µM
NC(=O)N1CC(Nc2nc(OCC34CCCN3CCC4)nc3c(F)c(-c4ccc(F)c5sc(N)nc45)c(-c4ccoc4)cc23)C1 [Compound 167]		10 to 30 µM
CN(c1nc(OCC23CCCN2CCC3)nc2c(F)c(-c3ccc(F)c4sc(N)nc34)c(C(F)(F)F)cc12)C1CN(C(N)=O)C1 [Compound 173]		1 to 10 µM

The next lines start with the values.

IC50 [1]	IC50 [2]	SMILES
1 to 10 µM	1 to 10 µM	Nc1nc2c(-c3c(Cl)cc4c(NC5CNC5)nc(OCC56CCCN5CCC6)nc4c3F)ccc(F)c2o1 [Compound 192]
1 to 10 µM	1 to 10 µM	CN1CCC[C@H]1COc1nc(NC2CN(C(=O)CN)C2)c2cc(C(F)(F)F)c(-c3ccc(F)c4sc(N)nc34)c(F)c2n1 [Compound 114]
1 to 10 µM	1 to 10 µM	Nc1nc2c(-c3c(C(F)(F)F)cc4c(N5CC6CC5CN6)nc(OC[C@@]56CCCN5C[C@H](F)C6)nc4c3F)ccc(F)c2s1 (stereo partly drawn) [Compound 239]
1 to 10 µM	1 to 10 µM	Nc1nc2c(-c3c(C(F)F)cc4c(N5CCNCC5)nc(OCC56CCCN5CCC6)nc4c3F)ccc(F)c2s1 [Compound 227]
1 to 10 µM	1 to 10 µM	Nc1nc2c(-c3c(OC(F)F)cc4c(N5CCNCC5)nc(OCC56CCCN5CCC6)nc4c3F)ccc(F)c2s1 [Compound 234, 4-(6-(difluoromethoxy)-8-fluoro-4-(piperazin-1-yl)-2-((tetrahydro-1H-pyrrolizin-7a(5H)-yl)methoxy)quinazolin-7-yl)-7-fluorobenzo[d]thiazol-2-amine]
1 to 10 µM	1 to 10 µM	CN1C[C@H](F)C[C@H]1COc1nc(NC2CNC2)c2cc(-c3ccoc3)c(-c3ccc(F)c4sc(N)nc34)c(F)c2n1 [Compound 135]
1 to 10 µM	1 to 10 µM	C[C@@H]1CN(c2nc(OC[C@@]34CCCN3C[C@H](F)C4)nc3c(F)c(-c4ccc(F)c5sc(N)nc45)c(OC(F)F)cc23)[C@@H](C)CN1 [Compound 282, 4-(6-(difluoromethoxy)-4-((2S,5R)-2,5-dimethylpiperazin-1-yl)-8-fluoro-2-(((2R,7aS)-2-fluorotetrahydro-1H-pyrrolizin-7a(5H)-yl)methoxy)quinazolin-7-yl)-7-fluorobenzo[d]thiazol-2-amine]
1 to 10 µM	0.1 to 1 µM	CN(c1nc(OC[C@@]23CCCN2C[C@H](F)C3)nc2c(F)c(-c3ccc(F)c4sc(N)nc34)c(C(F)(F)F)cc12)C1C2C[C@H]1CN2 (stereo partly drawn) [Compound 288]
1 to 10 µM	1 to 10 µM	CO[C@@H]1C[C@@H](COc2nc(NC3CNC3)c3cc(C(F)(F)F)c(-c4ccc(F)c5sc(N)nc45)c(F)c3n2)N(C)C1 [Compound 122]
1 to 10 µM	0.1 to 1 µM	Nc1nc2c(-c3c(C(F)(F)F)cc4c(N5CCNCC5)nc(OC[C@@]56CCCN5C[C@H](F)C6)nc4c3F)ccc(F)c2s1 [Compound 206]
1 to 10 µM	1 to 10 µM	Oc1cc(-c2c(Cl)cc3c(N4CC5CCC(C4)N5)nc(OCC45CCCN4CCC5)nc3c2F)c2ccccc2c1 [Compound 161]
1 to 10 µM	0.1 to 1 µM	Nc1nc2c(-c3c(C(F)(F)F)cc4c(N5CCC6(CNC6)C5)nc(OCC56CCCN5CCC6)nc4c3F)ccc(F)c2s1 [Compound 307]
1 to 10 µM	1 to 10 µM	CN1CCC[C@H]1COc1nc(N2CCN(C(=O)CN)CC2)c2cc(C(F)(F)F)c(-c3ccc(F)c4sc(N)nc34)c(F)c2n1 [Compound 116]
10 to 30 µM	1 to 10 µM	CNCCNc1nc(OC[C@@H]2CCCN2C)nc2c(F)c(-c3ccc(F)c4sc(N)nc34)c(Cl)cc12 [Compound 70]
0.1 to 1 µM	0.1 to 1 µM	Nc1nc2c(-c3c(C(F)(F)F)cc4c(NC5C[C@H]6CCC5N6)nc(OCC56CCCN5CCC6)nc4c3F)ccc(F)c2s1 (stereo partly drawn) [Compound 286]
1 to 10 µM	1 to 10 µM	CN(c1nc(OCC23CCCN2CCC3)nc2c(F)c(-c3ccc(F)c4sc(N)nc34)c(C(F)(F)F)cc12)[C@@H]1CCN(C(N)=O)C1 (atropisomer, axis not shown) [Compound 278]
